Tests used:
human EHMT2 913-1193 = molecular target: T1, human EHMT2 913-1193 (Homo sapiens, UniProt Q96KQ7); experiment: EHMT2 enzyme assay on histone peptide substrate; format: biochemical; conditions: Table 3A; histone H3 1-15 peptide, balanced conditions; read-out: EHMT2 (IC50 μM)
T1 construct: recombinant purified human EHMT2 913-1193, Viva; purchased Viva
T1 sequence (Q96KQ7 913-1193): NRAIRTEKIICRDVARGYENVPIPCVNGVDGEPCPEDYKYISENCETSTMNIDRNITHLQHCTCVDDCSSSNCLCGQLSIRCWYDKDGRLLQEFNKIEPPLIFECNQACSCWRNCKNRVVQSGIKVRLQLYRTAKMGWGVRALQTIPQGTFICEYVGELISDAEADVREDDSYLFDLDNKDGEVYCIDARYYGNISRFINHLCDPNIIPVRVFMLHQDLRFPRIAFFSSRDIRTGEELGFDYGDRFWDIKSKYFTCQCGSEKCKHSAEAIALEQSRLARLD
From the text: Recombinant purified human EHMT2 913-1193 ([…]) synthesized by Viva was used for all experiments. Biotinylated histone peptides were synthesized by Biopeptide and HPLC-purified to >95% purity. Streptavidin Flashplates and seals were purchased from PerkinElmer and 384 Well V-bottom Polypropylene Plates were from Greiner. ^3H-labeled S-adenosylmethionine (^3H-SAM) was obtained from American Radiolabeled Chemicals with a specific activity of 80 Ci/mmol. Unlabeled SAM and S-adenosylhomocysteine (SAH) were obtained from American Radiolabeled Chemicals and Sigma-Aldrich respectively. Flashplates were washed in a Biotek ELx-405 with 0.1% Tween. 384-well Flashplates and 96-well filter binding plates were read on a TopCount microplate reader (PerkinElmer). Compound serial dilutions were performed on a Freedom EVO (Tecan) and spotted into assay plates using a Thermo Scientific Matrix PlateMate (Thermo Scientific). Reagent cocktails were added by Multidrop Combi (Thermo Scientific).
10-point curves of test compounds were made on a Freedom EVO (Tecan) using serial 3-fold dilutions in DMSO, beginning at 2.5 mM (final top concentration of compound was […] and the DMSO was 2%). A 1 μL aliquot of the inhibitor dilution series was spotted in a polypropylene 384-well V-bottom plate (Greiner) using a Thermo Scientific Matrix PlateMate (Thermo Scientific). The 100% inhibition control consisted of 1 mM final concentration of the product inhibitor S-adenosylhomocysteine (SAH, Sigma-Aldrich). Compounds were incubated for 30 minutes with 40 μL per well of 0.031 nM EHMT2 (recombinant purified human EHMT2 913-1193, Viva) in 1× assay buffer (20 mM Bicine [pH 7.5], 0.002% Tween 20, 0.005% Bovine Skin Gelatin and 1 mM TCEP). 10 μL per well of substrate mix comprising assay buffer, ^3H-SAM (^3H-labeled S-adenosylmethionine, American Radiolabeled Chemicals, specific activity of 80 Ci/mmol), unlabeled SAM (American Radiolabeled Chemicals), and peptide representing histone H3 residues 1-15 containing C-terminal biotin (appended to a C-terminal amide-capped lysine, synthesized by Biopeptide and HPLC-purified to greater than 95% purity) were added to initiate the reaction (both substrates were present in the final reaction mixture at their respective Km values, an assay format referred to as “balanced conditions”). Reactions were incubated for 60 minutes at room temperature and quenched with 10 μL per well of 400 μM unlabeled SAM, then transferred to a 384-well streptavidin Flashplate (PerkinElmer) and washed in a Biotek ELx-405 well washer with 0.1% Tween after 60 minutes. 384-well Flashplates were read on a TopCount microplate reader (PerkinElmer).

[1] = test system: H3K9me2 in MDA-MB-231 cells; experiment: MDA-MB-231 H3K9me2 in-cell western assay (EHMT2 ICW); format: cell-based; conditions: Homo sapiens, Table 3A, read-out: ICW (IC50 μM)
From the text: MDA-MB-231 cell line was purchased from ATCC (Manassas, Va., USA). RPMI/Glutamax medium, Penicillin-Streptomycin, Heat Inactivated Fetal Bovine Serum, and D-PBS were purchased from Life Technologies (Grand Island, N.Y., USA). Odyssey blocking buffer, 800 CW goat anti-mouse IgG (H+L) antibody, and Licor Odyssey Infrared Scanner were purchased from Licor Biosciences, Lincoln, Nebr., USA. H3K9me2 mouse monoclonal antibody (Cat #1220) was purchased from Abcam (Cambridge, Mass., USA). 16% Paraformaldehyde was purchased from Electron Microscopy Sciences, Hatfield, Pa., USA). MDA-MB-231 cells were maintained in complete growth medium (RPMI supplemented with 10% v/v heat inactivated fetal bovine serum) and cultured at 37° C. under 5% C02. UNC0638 was purchased from Sigma-Aldrich (St. Louis, Mo., USA).
General Procedure for MDA-MB-231 HEK9me2 in-Cell Western Assay.
Compound (100 nL) was added directly to 384-well cell plate. MDA-MB-231 cells (ATCC) were seeded in assay medium (RPMI/Glutamax supplemented with 10% v/v heat inactivated fetal bovine serum and 1% Penicillin/Streptomycin, Life Technologies) at a concentration of 3,000 cells per well to a Poly-D-Lysine coated 384-well cell culture plate with 50 μL per well. Plates were incubated at 37° C., 5% CO2 for 48 hours (BD Biosciences 356697). […] After the incubation, 50 μL per well of 8% paraformaldehyde (Electron Microscopy Sciences) in PBS was added to the plates and incubated at room temperature for 20 minutes. Plates were transferred to a Biotek 406 plate washer and washed 2 times with 100 μL per well of wash buffer (1×PBS containing 0.3% Triton X-100 (v/v)). Next, 60 μL per well of Odyssey blocking buffer (Licor Biosciences) was added to each plate and incubated for 1 hour at room temperature. Blocking buffer was removed and 20 μL of monoclonal primary antibody α-H3K9me2 (Abcam) diluted 1:800 in Odyssey buffer with 0.1% Tween 20 (v/v) were added and plates were incubated overnight (16 hours) at 4° C. Plates were washed 5 times with 100 μL per well of wash buffer. Next 20 μL per well of secondary antibody was added (1:500 800 CW donkey anti-mouse IgG (H+L) antibody (Licor Biosciences), 1:1000 DRAQ5 (Cell Signaling Technology) in Odyssey buffer with 0.1% Tween 20 (v/v)) and incubated for 1 hour at room temperature. The plates were washed 5 times with 100 μL per well wash buffer then 2 times with 100 μL per well of water. Plates were allowed to dry at room temperature then imaged on a Licor Odyssey Infrared Scanner (Licor Biosciences) which measured integrated intensity at 700 nm and 800 nm wavelengths. Both 700 and 800 channels were scanned.
First, the ratio for each well was determined by:
Each plate included fourteen control wells of DMSO only treatment (Minimum Inhibition) as well as fourteen control wells (background wells) for maximum inhibition treated with control compound UNC0638 (Background wells).
The average of the ratio values for each well was calculated and used to determine the percent inhibition for each test well in the plate. Control compound was serially diluted three-fold in DMSO for a total of 10 test concentrations beginning at 1 μM. Percent inhibition was calculated as: […]
IC50 curves were generated using triplicate wells per concentration of compound. The IC50 is the concentration of compound at which measured methylation is inhibited by 50% as interpolated from the dose response curves. IC50 values were calculated using a non-linear regression (variable slope-four parameter fit model) with by the following formula:
where Top is fixed at 100% and Bottom is fixed to 0%, [I]=concentration of inhibitor, IC50=half maximal inhibitory concentration and n=Hill Slope.

Row | Compound | IC50 (human EHMT2 913-1193) [µM] | IC50 [1] [µM]
1 | CNC1=Nc2cc(-n3cc4c(n3)CCCNC4)c(OC)cc2C12CCC2 [Compound A70] | < 0.01 | < 0.01
2 | CNCc1cn(-c2cc3c(cc2OC)C2(CCC2)C(NC)=N3)cn1 [Compound A47] | 0.01 to 0.1 | 0.1 to 1
3 | CNc1cc(C)nc(Nc2ccc(OC)c(-n3cc4c(n3)CCCN(C)C4)c2F)n1 [Compound A66] | < 0.01 | 
4 | CNC1=Nc2cc(-n3cc([C@H]4CCCN4C)nn3)c(OC)cc2C12CCC2 [Compound A59R] | < 0.01 | 0.1 to 1
5 | CNC1=Nc2cc(-c3[nH]c4cnccc4c3C)c(Cl)cc2C12CCC2 [Compound A45] | < 0.01 | 0.01 to 0.1
6 | CNC1=Nc2cc(-n3cc4c(n3)CCCNC4)c(Cl)cc2C12CCC2 [Compound A51] | < 0.01 | < 0.01
7 | CNCc1cn(-c2cc3c(cc2Cl)C2(CCC2)C(NC)=N3)cn1 [Compound A48] | > 1 | > 1
8 | CCN1CCCc2nn(-c3cc4c(cc3Cl)C3(CCC3)C(NC)=N4)cc2C1 [Compound A69] | < 0.01 | 0.01 to 0.1

The remaining lines, values ahead:

Row | IC50 (human EHMT2 913-1193) [µM] | IC50 [1] [µM] | Compound
9 | > 1 |  | CNc1cc(C)nc(Nc2ccc(OC)c(-n3ncc4c3CCCNC4=O)c2F)n1 [Compound A63]
10 | 0.01 to 0.1 | 0.1 to 1 | CNC1=Nc2cc(-c3cc4ccncc4[nH]3)c(Cl)cc2C12CCC2 [Compound A44]
11 | < 0.01 | < 0.01 | CNC1=Nc2cc(-n3cc4c(n3)CCCN(C)C4)c(Cl)cc2C12CCC2 [Compound A68]
12 | 0.01 to 0.1 | 0.01 to 0.1 | CNC1=Nc2cc(-n3cc([C@H]4CCCN4C)nn3)c(Cl)cc2C12CCC2 [Compound A52R]
13 | < 0.01 | 0.01 to 0.1 | CNc1cc(C)nc(Nc2ccc(OC)c(-n3ncc4c3CCCNC4)c2F)n1 [Compound A62]

Source: US20200317642A1, “AMINE-SUBSTITUTED HETEROCYCLIC COMPOUNDS AS EHMT2 INHIBITORS AND DERIVATIVES THEREOF” (Epizyme, Inc., priority 2017, published 2020)
